Holding throughout (type): cell-based
Assay [1] concerns Moraxella osloensis. In words: Examination example: suppression of metabolite 4-methyl-3-hexenoic acid, components (a) and (b)/(b′). As for the experimental part: After culture on fabric prepared in the same manner as in the above (1), 3 ml of methanol was added, and extraction was carried out under ultrasonic irradiation for 30 minutes (20° C.). The extraction liquid was mixed with (a 1000 ppm methanol solution of) an ADAM reagent of Funakoshi Co., Ltd. at 1:1 (volume ratio) and left overnight under room temperature and dark place conditions. After that, 4-methyl-3-hexenoic acid as a metabolite from 14-methylhexadecanoic acid was quantified by HPLC. The quantification conditions are as follows.
Eluent: acetonitrile 61% (v/v), water 39% (v/v) Column temperature: 40° C. Sample injection volume: 10 μL Flow rate: 1.0 mL/min
The production amount of 4-methyl-3-hexenoic acid after culture on the fabric to which the metabolism controlling agent was added was quantified, and the ratio of the production amount to that of 4-methyl-3-hexenoic acid in the case of adding no metabolism controlling agent (control) was calculated as a metabolite suppression rate (%). The higher a numerical value thereof is, the more the metabolism is suppressed. Note that the metabolite suppression rate was determined by the following formula. In references 1-1, 2-1, 3-1 and 4-1, which are controls, the metabolite suppression rate is 0%.
Metabolite suppression rate(%)=100×[(D−C)/D] • C: production amount of metabolite of reference or examination example (μg/fabric g) • D: production amount of metabolite of control (μg/fabric g)

In assay [2] the test system is Moraxella osloensis. Description: Examination example: suppression of metabolism of 14-methylhexadecanoic acid, components (a) and (b)/(b′). The settings on record: for Metabolism of branched fatty acid: Residual amount (μg/fabric g): 14-methylhexadecanoic acid. As for the experimental part: The suppression of metabolism of 14-methylhexadecanoic acid by bacteria of the genus Moraxella and the suppression of a metabolite therefrom were tested in the following manner.
Moraxella osloensis (strain isolated from clothing) was precultured on an SCD-LP agar medium (NIHON PHARMACEUTICAL CO., LTD.) at 37° C.; for 24 hours, and a bacterial suspension of 10^6 (CFU/ml) was prepared by using an NB liquid medium (Difco) diluted to 1/20 with ion exchange water.
A methanol solution in which 14-methylhexadecanoic acid (SIGMA-ALDRICH) was dissolved was added dropwise to 3 cm×3 cm pieces of sterilized plain-weave cotton fabric to make it adhered to the fabric. The adhesion amount of 14-methylhexadecanoic acid was set to 10 μg per piece of the plain-weave cotton fabric (100 μg/fabric g). Further, a methanol solution in which component (a) was dissolved, and then, a methanol solution in which component (b) or (b′) was dissolved were added dropwise to the fabric to which 14-methylhexadecanoic acid adhered, and it was thereafter dried for an hour. This fabric was placed in a sterilized screw tube bottle No. 3 (Maruemu Corporation) and 100 μl of the bacterial suspension was inoculated thereto, and culture was carried out under 37° C.; conditions for 21 hours.
3 ml of methanol was added to the screw tube bottle after culture, and extraction was carried out under ultrasonic irradiation for 30 minutes (20° C.). The extraction liquid was mixed with a (trimethylsilyl)diazomethane hexane solution (FUJIFILM Wako Pure Chemical Corporation) at 9:1 (volume ratio) and left overnight under room temperature and dark place conditions. After that, 14-methylhexadecanoic acid remaining on the fabric was quantified by GC. The quantification conditions for GC are as follows. • GC: Agilent 6890N • GC column: Agilent DB-1 30 m×250 μm×0.25 μm • Temperature rise condition: 50° C. (held for 3 minutes)-(10° C./min)-300° C. (held for 5 minutes) • Sample injection volume: 1 μl • Split ratio: 1:12 • Detector: FID
The residual amount of 14-methylhexadecanoic acid after culture on the fabric to which each metabolism controlling agent was added was quantified, and the ratio of the residual amount to that of 14-methylhexadecanoic acid in the case of adding no metabolism controlling agent (control) was calculated as a metabolism suppression rate (%). The higher a numerical value thereof is, the more the metabolism is suppressed. Note that the metabolism suppression rate was determined by the following formula:
Metabolism suppression rate(%)=[1−(100−A)/(100−B)]×100 • A: residual amount of 14-methylhexadecanoic acid of reference or examination example (μg/fabric g) • B: residual amount of 14-methylhexadecanoic acid of control (μg/fabric g)
A control is an example in which none of component (a), (b) or (b′) is added, and references 1-1, 2-1, 3-1 and 4-1 qualify as this (the same applies hereinafter). In these controls, the metabolism suppression rate is 0′.

Assay [3] concerns Moraxella osloensis. Description: Examination example: measurement of viable bacterial count. As for the experimental part: After culture on fabric prepared in the same manner as in the above (1), 9 mL of an LP diluent (manufactured by NIHON PHARMACEUTICAL CO., LTD.) was added, and the extraction of the bacteria was carried out under ultrasound for 10 minutes. The extraction liquid was poured and mixed to an SCD-LP agar medium (NIHON PHARMACEUTICAL CO., LTD.), and culture was thereafter carried out at 37° C.; for a day. The number of colonies obtained on each piece of the fabric was counted, and a common logarithm value thereof was measured as the viable bacterial count. […] In addition, the […], the more the viable bacterial count of the microorganism is maintained.

`C/C=C/C/C=C/CCC(=O)[C@H]1O[C@H]1C(N)=O` [Cerulenin, [2R,3S]-2,3-epoxy-4-oxo-7,10-trans,trans-dodecanoic acid amide]: the “Product of metabolism of branched fatty acid: Metabolite suppression rate (%)” value (“Product of metabolism … (%)” for short) worked out at 2% with Moraxella osloensis [1] (single agent 5 μg/fabric g), 9% in the assay on Moraxella osloensis [1] (single agent 10 μg/fabric g) and 11% in the assay on Moraxella osloensis [1] (single agent 20 μg/fabric g). Also, the “Product of metabolism of branched fatty acid: Production amount (μg/fabric g)” value (“Product of metabolism … (μg/fabric g)” for short) came out at 4.3 μg/fabric g in the assay on Moraxella osloensis [1] (single agent 5 μg/fabric g), 4.0 μg/fabric g with Moraxella osloensis [1] (single agent 10 μg/fabric g) and 3.9 μg/fabric g in the assay with Moraxella osloensis [1] (single agent 20 μg/fabric g). In addition, the “Metabolism of branched fatty acid: Residual amount (μg/fabric g)” value (“Metabolism … Residual amount (μg/fabric g)” for short) was 39 μg/fabric g in the assay with Moraxella osloensis [2] (single agent 5 μg/fabric g), 41 μg/fabric g with Moraxella osloensis [2] (single agent 10 μg/fabric g) and 48 μg/fabric g with Moraxella osloensis [2] (single agent 20 μg/fabric g). For the same molecule, the results for the “Metabolism of branched fatty acid: Metabolism suppression rate (%)” value (“Metabolism … Metabolism suppression rate (%)” below) with Moraxella osloensis [2] (single agent 5 μg/fabric g), in the assay on Moraxella osloensis [2] (single agent 10 μg/fabric g) and in the assay with Moraxella osloensis [2] (single agent 20 μg/fabric g) were 0%, 3% and 15%, respectively. For the same molecule, the figures for the “Viable bacterial count (Log (cfu/fabric cm^2))” value in the assay on Moraxella osloensis [3] (single agent 5 μg/fabric g), with Moraxella osloensis [3] (single agent 10 μg/fabric g) and in the assay on Moraxella osloensis [3] (single agent 20 μg/fabric g) were 6.1 Log (cfu/fabric cm^2), 6.3 Log (cfu/fabric cm^2) and 6.3 Log (cfu/fabric cm^2), respectively.
For `N#CC(C#N)=NNc1cccc(Cl)c1` [CCCP, carbonylcyanide-m-chlorophenylhydrazone], the “Product of metabolism … (%)” value worked out at 25% in the assay with Moraxella osloensis [1] (single agent 2 μg/fabric g) and 36% in the assay with Moraxella osloensis [1] (single agent 5 μg/fabric g). The figures for the “Product of metabolism … (μg/fabric g)” value with Moraxella osloensis [1] (single agent 2 μg/fabric g) and in the assay on Moraxella osloensis [1] (single agent 5 μg/fabric g) were 3.3 μg/fabric g and 2.8 μg/fabric g, respectively. Besides, the “Metabolism … Residual amount (μg/fabric g)” value with Moraxella osloensis [2] (single agent 2 μg/fabric g) worked out at 44 μg/fabric g; in the assay on Moraxella osloensis [2] (single agent 5 μg/fabric g), 56 μg/fabric g. In addition, the figures for the “Metabolism … Metabolism suppression rate (%)” value in the assay with Moraxella osloensis [2] (single agent 2 μg/fabric g) and with Moraxella osloensis [2] (single agent 5 μg/fabric g) were 8% and 28%, respectively. Also, the “Viable bacterial count (Log (cfu/fabric cm^2))” value in the assay on Moraxella osloensis [3] (single agent 2 μg/fabric g) is 6.1 Log (cfu/fabric cm^2); with Moraxella osloensis [3] (single agent 5 μg/fabric g) it was 5.5 Log (cfu/fabric cm^2).
Regarding `Oc1cc(Cl)ccc1Oc1ccc(Cl)cc1Cl` [Triclosan, 2,4,4′-trichloro-2′-hydroxydiphenyl ether], the “Product of metabolism … (%)” value is given as 5% with Moraxella osloensis [1] (single agent 1 μg/fabric g) and 7% in the assay on Moraxella osloensis [1] (single agent 2 μg/fabric g). In addition, the “Product of metabolism … (μg/fabric g)” value in the assay with Moraxella osloensis [1] (single agent 1 μg/fabric g) stood at 4.2 μg/fabric g; with Moraxella osloensis [1] (single agent 2 μg/fabric g), 4.1 μg/fabric g. The “Metabolism … Residual amount (μg/fabric g)” value is recorded as 43 μg/fabric g in the assay on Moraxella osloensis [2] (single agent 0.5 μg/fabric g), 38 μg/fabric g with Moraxella osloensis [2] (single agent 1 μg/fabric g) and 44 μg/fabric g in the assay on Moraxella osloensis [2] (single agent 2 μg/fabric g). In addition, the “Metabolism … Metabolism suppression rate (%)” value in the assay on Moraxella osloensis [2] (single agent 0.5 μg/fabric g) is 6%; with Moraxella osloensis [2] (single agent 1 μg/fabric g), −2%; in the assay with Moraxella osloensis [2] (single agent 2 μg/fabric g), 8%. Besides, the entries for the “Viable bacterial count (Log (cfu/fabric cm^2))” value with Moraxella osloensis [3] (single agent 0.5 μg/fabric g), in the assay with Moraxella osloensis [3] (single agent 1 μg/fabric g) and in the assay on Moraxella osloensis [3] (single agent 2 μg/fabric g) were 6.2 Log (cfu/fabric cm^2), 6.2 Log (cfu/fabric cm^2) and 6.0 Log (cfu/fabric cm^2), respectively.
Turning to `Oc1cc(Cl)ccc1Oc1ccc(Cl)cc1` [Diclosan, 4-4′-dichloro-2-hydroxydiphenyl ether], the “Product of metabolism … (%)” value in the assay on Moraxella osloensis [1] (single agent 1 μg/fabric g) worked out at 5%; in the assay with Moraxella osloensis [1] (single agent 2 μg/fabric g), 14%; in the assay with Moraxella osloensis [1] (single agent 5 μg/fabric g), 41%. For the same molecule, the “Product of metabolism … (μg/fabric g)” value in the assay on Moraxella osloensis [1] (single agent 1 μg/fabric g) is on record as 4.2 μg/fabric g; with Moraxella osloensis [1] (single agent 2 μg/fabric g), 3.8 μg/fabric g; in the assay with Moraxella osloensis [1] (single agent 5 μg/fabric g), 2.6 μg/fabric g. The “Metabolism … Residual amount (μg/fabric g)” value is given as 43 μg/fabric g in the assay with Moraxella osloensis [2] (single agent 1 μg/fabric g), 46 μg/fabric g with Moraxella osloensis [2] (single agent 2 μg/fabric g) and 56 μg/fabric g in the assay on Moraxella osloensis [2] (single agent 5 μg/fabric g). The “Metabolism … Metabolism suppression rate (%)” value came out at 7% in the assay with Moraxella osloensis [2] (single agent 1 μg/fabric g), 11% in the assay with Moraxella osloensis [2] (single agent 2 μg/fabric g) and 27% in the assay with Moraxella osloensis [2] (single agent 5 μg/fabric g). The “Viable bacterial count (Log (cfu/fabric cm^2))” value is on record as 6.2 Log (cfu/fabric cm^2) with Moraxella osloensis [3] (single agent 1 μg/fabric g), 6.0 Log (cfu/fabric cm^2) with Moraxella osloensis [3] (single agent 2 μg/fabric g) and 5.1 Log (cfu/fabric cm^2) in the assay on Moraxella osloensis [3] (single agent 5 μg/fabric g).
